A value given as a limit tells only on which side of the number the result lay.

A short description of data set [1]: in vivo. The following applies: Wistar, rat, po, 10 umol/kg.
Data set [2] in a line: in vivo. Particulars: Wistar, rat, iv, 1 umol/kg.
Description: Volume of distribution at steady state in Wistar rat at 1 umol/kg, iv through bolus administration by LC/MS/MS analysis
Data set [3] in a line: in vitro. Particulars: human, plasma.
Description: Fraction unbound in human plasma at 10 uM
The nature of data set [4]: in vivo. The following applies: Wistar, rat, po, 10 umol/kg. This is another data set of the same source.
Data set [5] can be described thus: in vivo. Particulars: Wistar, rat, iv, 1 umol/kg. This is another data set of the same source.
Data set [6] in a line: in vivo. Particulars: Wistar, rat, iv, 1 umol/kg. This is another data set of the same source.
Description: Clearance in Wistar rat at 1 umol/kg, iv through bolus administration by LC/MS/MS analysis
Data set [7] in a line: in vitro. Particulars: rat, plasma.
Description: Fraction unbound in rat plasma at 10 uM
A short description of data set [8]: in vivo. The following applies: Lewis, rat, po.
Description: AUC in Lewis rat model of SCW-induced joint inflammation at anti-inflammatory ED50 administered via oral gavage once daily for 8 days measured 24 hrs post last dose on day 8 by LC/MS/MS analysis
Data set [9] can be described thus: Intrinsic clearance in rat hepatocytes assessed per million cells. The class given is ADME, cell-based, Hepatocyte. The following applies: read-out: CLH.

`C[C@H](NC(=O)C(F)(F)F)[C@H](Oc1ccc2c(cnn2-c2ccc(F)cc2)c1)c1ccccc1` came in with a bioavailability in “in vivo [1]” of 53%. In the data set “in vivo [2]”, this molecule yielded a volume of distribution (Vd) of 14 L/kg. Moreover, the figures for the free fraction (fraction unbound) at 10 µM in “in vitro [3]” and in “in vitro [7]” were 0.0001 and 0.00011, respectively. In the data set “in vivo [4]”, this molecule showed an AUC(0-inf) of 7.1 µM·h. For the same molecule, the half-life in “in vivo [5]” is 660 min. In the data set “in vivo [6]”, the clearance was determined as 19 mL/min/kg. Further, in “in vivo [8]”, the AUC was determined as 0.08 µM·h.

`COc1ccc([C@@H](Oc2ccc3c(cnn3-c3ccc(F)cc3)c2)[C@H](C)NC(=O)C2CC2)cn1` had a bioavailability in “in vivo [1]” of 66%. Besides, the Vd in the data set “in vivo [2]” worked out at 15 L/kg. For the same molecule, the figures for the fraction unbound at 10 µM in the data set “in vitro [3]” and in “in vitro [7]” were 0.0015 and 0.0063, respectively. The same molecule gave an AUC(0-inf) in the data set “in vivo [4]” of 5.9 µM·h. The molecule further showed a clearance in the data set “in vivo [6]” of 28 mL/min/kg. Besides, in “in vivo [8]”, the AUC is 0.035 µM·h.

Turning to `C[C@]12C=CC(=O)C=C1CC[C@@H]1[C@@H]2[C@@H](O)C[C@@]2(C)[C@H]1CC[C@]2(O)C(=O)CO` [PREDNISOLONE], the Vd in “in vivo [2]” worked out at 0.63 L/kg. Besides, the fraction unbound at 10 µM in the data set “in vitro [3]” was greater than 0.41; in the data set “in vitro [7]”, 0.31. In “in vivo [4]”, this molecule registered an AUC(0-inf) of 0.35 µM·h. Moreover, the half-life in “in vivo [5]” is 16.2 min. Further, the clearance in “in vivo [6]” was 54 mL/min/kg. Also, in [9], the hepatocyte CLint worked out at 27 µL/min/1e6 cells. In the data set “in vivo [8]”, this molecule showed an AUC of 0.59 µM·h.

By bioavailability is commonly meant dose-corrected exposure relative to a reference, in per cent. The Vd is a proportionality between amount in the body and measured concentration, not a real space. Low values mean confinement near the circulation, high ones extensive tissue distribution. What is called fraction unbound is the share of the substance not bound to proteins or other matrix. The low end stands for little free substance, the high end for much free substance. As a reminder, the AUC(0-inf) is the area under the concentration-time curve extrapolated to infinity. High values mean more exposure, low ones less exposure. Broadly, the half-life is the time needed for the level to fall by half in the phase considered. A word on the clearance: it is the rate of elimination divided by the concentration. A low value points to inefficient removal. Broadly, the AUC is concentration integrated over time. Low values mean low exposure, high ones high exposure.

The record behind these values is ChEMBL document CHEMBL3867467, “Discovery of indazole ethers as novel, potent, non-steroidal glucocorticoid receptor modulators” (Bioorg Med Chem Lett, 2016).
